Assays:
[1] = system: S-180 sarcoma; test: In vivo tumor growth inhibition, S-180 sarcoma in mice; conditions: for activity against mice S180 sarcoma (in words): i.p. injection
Procedure: S-180 sarcoma developed for 7-11 days and in good growth trend was homogenated into cell suspension. The cell suspension was inoculated subcutaneously into right armpit of female KM mice (18˜22 g) (about 1.0−2.5×10^6 cells/mouse). After 24 h, the mice were grouped in random with compounds administrated by i.p. injection. From the next day on, the mice were given serial dosages. After treatment, animals were killed, and solid tumors were removed and weighed after the body weight were weighed. The inhibition rate was calculated as follows, and T-test was carried out: [(Average tumor weight of NS group−Average tumor weight of test group)/Average tumor weight of NS group]×100%.

[2] = system: S-180 sarcoma; test: as above
[3] = system: H22 hepatoma; test: In vivo tumor inhibition, H22 hepatoma
[4] = system: DNA; test: DNA double strand break (further studies)
[5] = system: tumor cell cycle; test: Tumor cell cycle arrest (further studies); format: cell-based; conditions: significantly dose-dependent
[6] = system: tumor cell; test: Tumor cell apoptosis (further studies); format: cell-based
[7] = Body weight and deaths of S-180 bearing mice; format: in vivo
[8] = system: mice leukemia cell P388; test: Growth inhibition of P388 cells, MTT assay; format: cell-based; conditions: Mus musculus, read-out: Growth inhibition effect to P388 cell strain
Procedure: (§1) The cell growth inhibition of mice leukemia cell P388 was evaluated by MTT (microculture tetrozolium) assay, while the cell growth inhibition of human lung adenocarcinoma cell A-549 was evaluated by SRB (Sulforhodamine B) protein staining assay.
The procedure of MTT assay was as follows: appropriate amount of cells in log phase were seeded in 96-well plates (6000 cells/well, 15000 cells/well, 90ul/well) according to the growing rate. After cultured for 24 h, cells were exposed to serial dilutions of drugs in triplicate (10 ul/well). In addition, wells without cell, and wells without cell but with serial dilutions of drugs in case of using a colored-drug were set for zeroing. Then, the cells were cultured in 5% CO2 humidified incubator at 37° C. for 48 h. After treatment of drugs for 48 h, 20ul MTT (Sigma) which was diluted by normal saline to the concentration of 5 mg/ml was added to each well, 50ul/well 10%SDS-5% isobutanol-0.01% mol/LHCl was added after 4 h. After cultured overnight, absorbance was measured at 570 nm using a multiwell spectrophotometer. The inhibition effect of the compounds in test (percentage of growth inhibition) was calculated for each well: % inhibition=(OD570control cells−OD570treated cells)/OD570control cells×100%.
(§2) The cell lines used were mice leukemia cell P388, human leukemia cell MOLT-4, human lung adenocarcinoma cell A-549, human gastric adenocarcinoma SGC-7901, human hepatocellular carcinoma BEL-7402 and human embryonal fibroblast WI-38 (commerially available from ATCC).
(§3) The exposure time to compounds was 48 h-72 h.

[9] = system: human lung adenocarcinoma cell A-549; test: Growth inhibition of A-549 cells, SRB protein staining assay; format: cell-based; conditions: read-out: Growth inhibition effect to A-549 cell strain
Procedure: as §1
The procedure of SRB assay was as follows: appropriate amount of cells in log phase were seeded in 96-well plates according to the growing rate (90 ul/well). After cultured for 24 h, cells were exposed to serial dilutions of drugs in triplicate (10 ul/well). In addition, control wells of normal saline in corresponding concentrations and zeroing wells without cell were set. The cells were incubated in 5% CO2 humidified incubator at 37° C. After 72 h, the medium was removed and cells were fixed with cold 10% trichloric acid (TCA) at 4° C. for 1 h. The plates were washed with distilled water 5 times, and stained in room temperature with 4 mg/ml SRB (Sigma, diluted with 1% glacial acetic acid, 100 ul/well) for 15 minutes after air drying. SRB was then washed with 1% acetic acid 5 times. Plates were dried, followed by adding 150 ul/well Tris solution. Absorbance was measured at […] using a multiwell spectrophotometer. The inhibition effect of the compounds in test (percentage of growth inhibition) was calculated for each well: % inhibition=(A540control cells−A540treated cells)/A540control cells×100%.
as §2, §3

Which “Weight of tumor (g) mean ± SD” value ([1]; S-180 sarcoma, 5 mg/kg i.p) does the source give for `CN(C)CCN1C(=O)c2cccc3cc(N)cc(c23)C1=O` [Amonafide, N-(β-dimethylaminoethyl)-3-amino-1,8-naphthalimide, reference compound] here?
The value was 1.12 ± 0.35 g.

And the “activity against mice S180 sarcoma (in words)” value [1]?
The value was “not potent”.

What about the “Tumor growth inhibition %” value ([2]; 5 mg/kg i.p) of the same compound?
Its value is 30.9%.

What about the “Tumor growth inhibition %” value ([2]; 10 mg/kg i.p) of the same compound?
The value was 15.4%.

What about the “Weight of tumor (g) mean ± SD” value ([2]; 10 mg/kg i.p) of the same compound?
Its value is 1.37 ± 0.26 g.

And the “activity in parallel experiments (in words)” value ([3]; compared with C16)?
The value was “not as active”.

And the “DNA double strand break” value [4]?
Its value is “induce the broken of DNA double strand”.

And the “tumor cell cycle arrest” value [5]?
Its value is “arrest tumor cell cycle in G2/M phase”.

And the tumor cell apoptosis [6]?
Its tumor cell apoptosis is “trigger tumor cell apoptosis”.

And the “Weight of mice (g) Day 7” value ([7]; 5 mg/kg i.p)?
Its value is 32.0 g.

And the “Weight of mice (g) Day 7” value ([7]; 10 mg/kg i.p)?
Its value is 31.3 g.

With `CN(C)CCN1C(=O)c2cccc3c2c(cc2c4ccccc4sc32)C1=O` [compound 16, N-(N′,N′-dimethylaminoethyl)benzo[b]thieno[2,1-c]naphthalimide] as the compound, how does the “Weight of tumor (g) mean ± SD” value ([1]; S-180 sarcoma, 12.5 mg/kg i.p) read?
Its value is 1.14 ± 0.29 g.

And the “Tumor growth inhibition %” value ([1]; S-180 sarcoma, 25 mg/kg i.p)?
The value was 71.6%.

And the “Weight of tumor (g) mean ± SD” value ([1]; S-180 sarcoma, 25 mg/kg i.p)?
Its value is 0.46 ± 0.24 g.

And the “activity against mice S180 sarcoma (in words)” value [1]?
Its value is “active”.

What about the “Tumor growth inhibition %” value ([2]; 12.5 mg/kg i.p) of the same compound?
Its value is 29.6%.

And the “Tumor growth inhibition %” value ([2]; 50 mg/kg i.p)?
Its value is 95.6%.

And the “Weight of tumor (g) mean ± SD” value ([2]; 50 mg/kg i.p)?
The value was 0.08 ± 0.04 g.

And the “tumor inhibition (in words)” value ([3]; 7.5 mg/kg)?
Its value is “not active”.

And the tumor inhibition rate ([3]; i.p. 15 mg/kg)?
Its tumor inhibition rate is 51.0%.

And the tumor inhibition rate ([3]; i.p. 30 mg/kg)?
The tumor inhibition rate was 72.6%.

What about the “DNA double strand break” value [4] of the same compound?
The value was “induce the broken of DNA double strand”.

What about the “tumor cell cycle arrest” value [5] of the same compound?
The value was “arrest tumor cell cycle in G2/M phase”.

And the tumor cell apoptosis [6]?
Its tumor cell apoptosis is “trigger tumor cell apoptosis”.

What about the inhibition at 100 µM ([8]; 10^−4 M) of the same compound?
The inhibition at 100 µM was 100%.

And the inhibition at 10 µM ([8]; 10^−5 M)?
The inhibition at 10 µM was 95.9%.

What about the inhibition at 1 µM ([8]; 10^−6 M) of the same compound?
Its inhibition at 1 µM is 68.2%.

And the inhibition at 0.1 µM ([8]; 10^−7 M)?
The inhibition at 0.1 µM was 21.4%.

And the inhibition at 0.01 µM ([8]; 10^−8 M)?
Its inhibition at 0.01 µM is 13.8%.

And the inhibition at 100 µM ([9]; A549, 10^−4 M)?
The inhibition at 100 µM was 97.1%.

What about the inhibition at 10 µM ([9]; A549, 10^−5 M) of the same compound?
The inhibition at 10 µM was 96.6%.

And the inhibition at 1 µM ([9]; A549, 10^−6 M)?
The inhibition at 1 µM was 85.2%.

And the inhibition at 0.1 µM ([9]; A549, 10^−7 M)?
The inhibition at 0.1 µM was 72.2%.

And the inhibition at 0.01 µM ([9]; A549, 10^−8 M)?
The inhibition at 0.01 µM was 55.3%.

What about the “Weight of mice (g) Day 7” value ([7]; 12.5 mg/kg i.p) of the same compound?
Its value is 26.9 g.

What about the “Weight of mice (g) Day 7” value ([7]; 25 mg/kg i.p) of the same compound?
Its value is 18.6 g.

What about the “Weight of mice (g) Day 7” value ([7]; 50 mg/kg i.p) of the same compound?
Its value is 12.9 g.
